Reference: PubChem BioAssay AID1919002 (Molecular Pharmacology Branch, DTP, NCI, 2023)

Tested on: 743489-274-T-PDC complex spheroid growth
Assay: Anticancer human tumor 743489-274-T-PDC patient-derived renal cell carcinoma cell line growth inhibition [AhR]
Conditions: for IC50: curve of first compound; for viability, T/C: stronger effect = lower value; active = viability on the fitted dose curve at most 10% of control; inactive = the rest
In short: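 Complex tumor spheroids co-cultured with HUVEC and human MSC stroma; AhR antagonists tested in combination with standard-of-care and investigational agents. Top concentration at or near clinical Cmax (else 10 microM), half-log dilutions; growth expressed as percent test/control.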
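Also: spheroids exposed to agents for 7 days before readout.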
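For viability, T/C in this document: 100% = DMSO vehicle control wells.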

Cn1ncnc1C1c2n[nH]c(=O)c3cc(F)cc(c23)NC1c1ccc(F)cc1 (stereo not given) + CC(CO)NC(=O)c1cc(-c2ccc(Cl)cc2)nn(-c2cnn(C)c2)c1=O
> 100 nM: IC50 (second compound 0.1 µM) | IC50 (second compound 0.316 µM) | IC50 (second compound 1 µM) | IC50 (second compound 3.16 µM) | IC50 (second compound 10 µM)
inactive: viability, T/C (second compound 0.1 µM, first compound 0.000316 µM) 90.7% | viability, T/C (second compound 0.1 µM, first compound 0.001 µM) 98% | viability, T/C (second compound 0.1 µM, first compound 0.00316 µM) 106% | viability, T/C (second compound 0.1 µM, first compound 0.01 µM) 95% | viability, T/C (second compound 0.1 µM, first compound 0.0316 µM) 89.6% | viability, T/C (second compound 0.1 µM, first compound 0.1 µM) 86.8% | viability, T/C (second compound 0.316 µM, first compound 0.000316 µM) 85.5% | viability, T/C (second compound 0.316 µM, first compound 0.001 µM) 95.8% | viability, T/C (second compound 0.316 µM, first compound 0.00316 µM) 115% | viability, T/C (second compound 0.316 µM, first compound 0.01 µM) 88% | viability, T/C (second compound 0.316 µM, first compound 0.0316 µM) 80.6% | viability, T/C (second compound 0.316 µM, first compound 0.1 µM) 84.8% | viability, T/C (second compound 1 µM, first compound 0.000316 µM) 94.1% | viability, T/C (second compound 1 µM, first compound 0.001 µM) 97.6% | viability, T/C (second compound 1 µM, first compound 0.00316 µM) 102% | viability, T/C (second compound 1 µM, first compound 0.01 µM) 87% | viability, T/C (second compound 1 µM, first compound 0.0316 µM) 82.7% | viability, T/C (second compound 1 µM, first compound 0.1 µM) 91.8% | viability, T/C (second compound 3.16 µM, first compound 0.000316 µM) 93.9% | viability, T/C (second compound 3.16 µM, first compound 0.001 µM) 92.2% | viability, T/C (second compound 3.16 µM, first compound 0.00316 µM) 91.4% | viability, T/C (second compound 3.16 µM, first compound 0.01 µM) 92.1% | viability, T/C (second compound 3.16 µM, first compound 0.0316 µM) 89.4% | viability, T/C (second compound 3.16 µM, first compound 0.1 µM) 93.4% | viability, T/C (second compound 10 µM, first compound 0.000316 µM) 83.7% | viability, T/C (second compound 10 µM, first compound 0.001 µM) 86.3% | viability, T/C (second compound 10 µM, first compound 0.00316 µM) 85% | viability, T/C (second compound 10 µM, first compound 0.01 µM) 99% | viability, T/C (second compound 10 µM, first compound 0.0316 µM) 90.9% | viability, T/C (second compound 10 µM, first compound 0.1 µM) 83.1%
